From patent EP1996603B1, “LIPID A ANTAGONISTS WITH ANTI-SEPTIC SHOCK, ANTI-INFLAMMATORY, ANTI-ISCHEMIA AND ANALGESIC ACTIVITY” (Università Degli Studi Di Milano - Bicocca, priority 2006, dated 2007)
Entries after “also recorded” stand apart in the source; their conditions may differ.

Test system: BMΦ, BMDC and D1 cells
Experiment: Lipid A-induced TNFα production in macrophages and dendritic cells (ELISA)
Assay type: cell-based, Mouse
Experimental: BMΦ and DC were derived from bone marrow cells and divided in two separate cultures. For DC preparation bone marrow cells were cultured in complete IMDM supplemented with 10% supernatant of GM-CSF-transduced B16 tumor cells [R. Soiffer, T. Lynch, M. Mihm, K. Jung, C. Rhuda, J. C. Schmollinger, F. S. Hodi, L. Liebster, P. Lam, S. Mentzer, S. Singer, K. K. Tanabe, A. B. Cosimi, R. Duda, A. Sober, A. Bhan, J. Daley, D. Neuberg, G. Parry, J. Rokovich, L. Richards, J. Drayer, A. Berns, S. Clift, L. K. Cohen, R. C. Mulligan, G. Dranoff, Proc. Natl. Acad. Sci. U S A. 1998, 95(22), 13141-13146]. Fresh medium was added every 2 d. After 7-10 d of culture, cells were analyzed for CD11c expression and used in assays when 90% were CD11c positive. For BMΦ preparation bone marrow cells were cultured in complete IMDM supplemented with 10% supernatant of M-CSF-transduced NIH3T3 cells. Also in this case, fresh medium was added every 2 d. After 7-10 d of culture, cells were analyzed for Mac1 expression and used in assays when at least 90% were Mac1 positive. D1 cells were cultured in complete IMDM supplemented with 10% supernatant of GM-CSF-transduced B16 tumor cells.
D1 cells, BMDC and MΦ were plated in 48 well plates at a concentration of 200000 cells/well in 200µL of medium. One or two hours after plating they were treated with different amounts of compounds Ic and Id for 30 min and then stimulated with Lipid A from Escherichia coli (F583, Rd mutant Sigma, 0.5µM) for 18 h.
Given the pivotal role of early-activated DC and MΦ in directing inflammatory reactions, compounds Ia, Ic and Id were tested for their ability to antagonize the stimulatory activity of lipid A on bone marrow derived macrophages (BMΦ) and DC (BMDC) by interfering with their capacity to induce TNFα production. As source of DC, D1 cells, a long term growth factor (GM-CSF)-dependent DC line [C. Winzler et al. J. Exp. Med. 1997, 185, 317-327] were also used. BMΦ, BMDC and D1 cells were stimulated with lipid A (0.5 µM) after a pre-exposure to compounds Ia, Ic and Id and the amount of TNFα released in the supernatant was measured by ELISA.

`CCCCCCCCCCCCCCO[C@H]1[C@@H](OC)O[C@H](C[N+](C)(C)C2CCCC2)[C@@H](O)[C@@H]1OCCCCCCCCCCCCCC` [Compound Id, methyl 6-deoxy-6-N,N',N"-dimethylcyclopentylammonium-2,3-di-O-tetradecyl-α-D-glucopyranoside] was tested, and the “direct inflammatory function (stimulating cytokines production)” value (cells treated with compound alone, without lipid A) was “did not show any direct inflammatory function”, the “relative potency as inhibitor of lipid A” value (comparison between compounds Ia, Ic and Id) was “more potent than Ic” and the TNFα production (stimulation with lipid A (0.5 µM) after pre-exposure to compound, TNFα released in the supernatant measured by ELISA, BMΦ, BMDC and D1 cells) was “interfered with lipid A's action in a dose-dependent manner; also recorded: lower activity; also recorded: inhibited”.
